Experiment: Surface tension of dispersing agent at 25°C by Wilhelmy method (Physical property 1-5)
Format: physicochemical
Settings: aqueous solution of 0.1% by mass of the dispersing agent
Procedure: The surface tension may be determined by the following method, for example. An anionic dispersion agent is diluted with water to prepare an aqueous solution consisting of: 0.1% by mass of the anionic dispersion agent, relative to the total mass of the aqueous solution; and water. Then, the aqueous solution was used to measure the surface tension at 25°C by Wilhelmy method (which may be referred to as plate method or vertical plate method). Specifically, when a plate that is a measuring unit makes contact with the surface of the aqueous solution, the aqueous solution wets the plate upwards. At the time, the surface tension acts along the perimeter of the plate, and the force that pulls the plate into the aqueous solution generates. The pulling force F (force that acts on the plate, measuring force) is read, and the surface tension r is determined by the following formula. In the formula, L represents the perimeter (m) of the plate, and θ represents the contact angle of the plate and the aqueous solution. r = F/(L×cosθ) [formula]
The surface tension may be measured using a commercially available measurement device, such as static surface tension measurement system (manufactured by DKSH Japan, under the model number of TD 1C or TD 3).
Each dispersing agent used in the examples and comparative examples was diluted with water to prepare an aqueous solution of the dispersing agent consisting of: 0.1% by mass of the anionic dispersion agent, relative to the total mass of the aqueous solution; and water. Then, the resultant aqueous solution of the dispersing agent was used to measure the surface tension at 25°C by Wilhelmy method.

| Compound | surface tension at 25°C | surface tension at 25°C (listed as compound (II-1)) |
| --- | --- | --- |
| CCCCC(CC)COCCOCCOP(=O)([O-])O.[Na+] [Example D-4, Polyoxyalkylene alkylether phosphoric acid ester] | 30.7 mN/m | – |
| Ammonium polyoxyethylene alkylether sulfate [Example D-6] | 38.8 mN/m | 30.7 mN/m |
